{
  "source": "patent US11419859B2",
  "about": "“Combination therapy for treating malignancies” (Servier Pharmaceuticals LLC, priority 2015, dated 2022)",
  "assay": "blood bilirubin in subjects with a UGT1A1 mutation receiving COMPOUND 1",
  "assay_type": "in vivo, human",
  "source_text": "All toxicity≥Grade 3 not due to underlying AML or complications of the disease or myelosuppressive treatment, with the exception of ≥Grade 3 blood bilirubin increases in subjects with a UGT1A1 mutation receiving COMPOUND 1.",
  "data": [
    {"compound": "CC(C)(O)CNc1nc(Nc2ccnc(C(F)(F)F)c2)nc(-c2cccc(C(F)(F)F)n2)n1", "note": "[COMPOUND 1, 2-methyl-[(4-[6-(trifluoromethyl)pyridin-2-yl]-6-{[2-(trifluoromethyl)pyridin-4-yl]amino}-1,3,5-triazin-2-yl)amino]propan-2-ol]", "values": [
      {"measurement": "blood bilirubin", "result": "isolated blood bilirubin increases have been seen"}
    ]}
  ]
}
